EC50, DC50 and Emax data for 13 compounds are collected here from patent US20260014147A1, “STAT6 DEGRADERS” (Gilead Sciences, Inc., priority 2024, published 2026).

Experiment [1] concerns Eotaxin-3 (CCL26) release in human whole blood stimulated with IL-4. The experiment can be described thus: Human Whole Blood Eotaxin-3 Assay (IL-4 stimulated, inhibition of eotaxin-3 release). To be noted: EC50 provided for test compounds with >80% Emax, geometric mean across assay runs and batches. The experiment is classed as cell-based. As for the experimental part:
This was a human whole blood assay using recombinant human Interleukin 4 to stimulate the blood and measuring the ability of the test compounds to inhibit eotaxin-3 release. The biological activities of the test compounds have been tested in human whole blood stimulated with IL-4 measuring Eotaxin-3 release. The test compounds were added to 384 well clear flat-bottom plate in a 4-fold serial dilution in triplicates using a liquid handler. Human whole blood stabilized in lithium-heparin tubes was added in a volume of 65 uL per well, resulting in a final DMSO concentration of 0.5%. The plate is incubated for 2 h at 37° C. under 5% CO2/95% air. Subsequently, 5 μL of recombinant human IL-4 (R&D Systems, cat #204-ILB) was added to the wells to a final concentration of 400 pM. The plate was incubated for 48 h at 37° C. under 5% CO2/95% air. The plate was spun down for 10 minutes at 500×g and 20 uL supernatant was harvested and transferred to a 384 well v-bottom plate using a liquid handler and stored at −20° C. until further analysis. 10 uL supernatant was used to measure the level of Eotaxin-3 (CCL26) using Human Eotaxin-3 MSD kit from Mesocsale (Cat #K251UEK-4). The assay was performed according to the manufacture instructions.
The data from the human whole blood eotaxin-3 assay is shown below for Examples 2q11, 2110, and 2c49 (where the effect in % is plotted against the test concentration in M on a log-scale).

The target in experiment [2] is T1, STAT6 (endogenous, HiBiT-tagged) in HeLa LgBiT clone 4.14 cells (Homo sapiens, UniProt P42226).
T1 construct: These cells express endogenous STAT6; host or cells: HeLa LgBiT clone 4.14
T1 sequence (P42226 1-847): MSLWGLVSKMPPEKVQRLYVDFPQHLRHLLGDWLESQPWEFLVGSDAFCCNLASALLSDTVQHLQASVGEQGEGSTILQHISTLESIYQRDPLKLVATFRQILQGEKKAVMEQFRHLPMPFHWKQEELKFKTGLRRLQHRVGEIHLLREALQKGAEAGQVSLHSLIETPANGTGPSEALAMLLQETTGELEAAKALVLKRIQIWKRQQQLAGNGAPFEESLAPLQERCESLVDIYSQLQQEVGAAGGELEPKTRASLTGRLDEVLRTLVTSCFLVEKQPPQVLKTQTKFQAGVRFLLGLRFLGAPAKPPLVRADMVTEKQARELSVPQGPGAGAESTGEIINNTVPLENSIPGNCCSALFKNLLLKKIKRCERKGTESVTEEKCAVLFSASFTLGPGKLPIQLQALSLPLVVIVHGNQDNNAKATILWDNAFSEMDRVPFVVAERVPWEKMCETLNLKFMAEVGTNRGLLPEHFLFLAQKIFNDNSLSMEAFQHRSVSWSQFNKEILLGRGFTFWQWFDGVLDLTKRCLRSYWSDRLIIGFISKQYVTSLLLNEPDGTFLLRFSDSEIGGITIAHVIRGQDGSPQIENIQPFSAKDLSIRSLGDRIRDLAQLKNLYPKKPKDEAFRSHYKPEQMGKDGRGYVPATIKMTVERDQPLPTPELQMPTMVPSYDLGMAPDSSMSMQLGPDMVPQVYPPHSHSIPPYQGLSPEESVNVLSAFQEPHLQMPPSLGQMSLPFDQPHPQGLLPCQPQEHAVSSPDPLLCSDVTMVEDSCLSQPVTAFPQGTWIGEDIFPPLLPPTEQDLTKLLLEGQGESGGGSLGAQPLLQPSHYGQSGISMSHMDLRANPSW
The experiment can be described thus: STAT6 Degrader Assay (HiBiT based, HeLa LgBiT clone 4.14 cells, luminescence, DC50). In kind it is cell-based. To be noted: geometric mean; for DC50: DC50 provided for test compounds with >80% Emax, read-out: STAT6 degradation DC50; for Emax: Emax provided for test compounds with <80% Emax (and 2c15), read-out: STAT6 degradation Emax. In outline: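 Remaining STAT6 is read as NanoBiT luminescence after 0.5 h with Nano-Glo, in HeLa LgBiT clone 4.14 cells expressing endogenous HiBiT-tagged STAT6, following 4-24 h compound incubation at 37 °C. Full degradation is set by 50 µM terfenadine, which kills the cells; degradation plotted against log compound concentration.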
For orientation: HiBiT is a short tag that completes a luciferase, so light tracks the accessible tagged protein.

pEC50: −log10 of the molar value.

Broadly, the pEC50 is the negative decadic logarithm of the EC50, by convention in mol/L. The low end stands for a high EC50, the high end for a low EC50. In general, DC50 refers to the concentration at which degradation of the target reaches its halfway point. In experiment [1] (Homo sapiens), `C[C@@H](c1cc2c(-c3ccc(N)nc3)ccnc2n1C)N1CCC(c2ccc(C(=O)N3CCn4nc(CN5CCC(c6ccc(NC7CCC(=O)NC7=O)cc6F)C(F)(F)C5)cc4C3)cc2)CC1` (stereo partly drawn) [Example 2q9, 3-((4-(1-((5-(4-(1-((S)-1-(4-(6-aminopyridin-3-yl)-1-methyl-1H-pyrrolo[2,3-b]pyridin-2-yl)-ethyl)piperidin-4-yl)benzoyl)-4,5,6,7-tetrahydropyrazolo[1,5-a]pyrazin-2-yl)methyl)-3,3-difluoro-piperidin-4-yl)-3-fluorophenyl)amino)piperidine-2,6-dione] gave a pEC50 of 7.57. The DC50 in experiment [2] was found to be 0.0029 µM.
On to `C[C@@H](c1cc2c(-c3ccc(N)nc3)ccnc2n1C)N1CCC(c2ccc(C(=O)N3CCC(CN4CCN(c5ccc(N[C@H]6CCC(=O)NC6=O)cc5F)CC4)CC3)cc2)CC1` (single isomer, unassigned) [Example 2c20], for which, in experiment [1], the negative-log EC50 (pEC50) is 7.08. Also, the DC50 in experiment [2] amounted to 0.0096 µM.
Turning to `C[C@@H](c1cc2c(-c3ccc(N)nc3)ccnc2n1C)N1CCC(c2ccc(C(=O)N3CCC(CN4CCN(c5ccc(NC6CCC(=O)NC6=O)cc5F)CC4C(F)(F)F)CC3)cc2)CC1` (mixture of isomers) [Example 2f9, 3-((4-(4-((1-(4-(1-((S)-1-(4-(6-aminopyridin-3-yl)-1-methyl-1H-pyrrolo[2,3-b]pyridin-2-yl)-ethyl)piperidin-4-yl)benzoyl)piperidin-4-yl)methyl)-3-(trifluoromethyl)-piperazin-1-yl)-3-fluorophenyl)-amino)piperidine-2,6-dione], the pEC50 in experiment [1] (Homo sapiens) is 6.60. Moreover, the 50% degradation concentration (DC50) in experiment [2] amounted to 0.0692 µM.
Usually Emax stands for the greatest response seen or fitted, relative to the assay's reference. On to `COCc1nc2cc(-c3ccnc4c3cc([C@H](C)N3CCC(c5ccc(C(=O)N6CCC(CN7CCN(c8ncc(NC9CCC(=O)NC9=O)cc8F)CC7)CC6)cc5)CC3)n4C)ccc2[nH]1` (stereo partly drawn) [Example 2n12, 3-((5-fluoro-6-(4-((1-(4-(1-((S)-1-(4-(2-(methoxymethyl)-1H-benzo[d]imidazol-5-yl)-1-methyl-1H-pyrrolo[2,3-b]pyridin-2-yl)ethyl)piperidin-4-yl)benzoyl)piperidin-4-yl)methyl)piperazin-1-yl)pyridin-3-yl)amino)piperidine-2,6-dione], for which the pEC50 in experiment [1] (Homo sapiens) is 7.39. Also, the Emax in experiment [2] lay within 70 to 80%.
`COCc1nc2cc(-c3ccnc4c3cc([C@H](C)N3CCC(c5ccc(C(=O)N6CCC(CN7CCN(c8ccc(N[C@@H]9CCC(=O)NC9=O)cc8F)CC7)CC6)cc5)CC3)n4C)ccc2[nH]1` (single isomer, unassigned) [Example 2c52] gave a pEC50 in experiment [1] (Homo sapiens) of 7.51. Further, in experiment [2], the 50% degradation concentration (DC50) amounted to 0.0039 µM.
In experiment [1] (Homo sapiens), `COc1nc(N)ccc1-c1ccnc2c1cc([C@H](C)N1CCC(c3ccc(C(=O)N4CCC(CN5CCN(c6ccc(NC7CCC(=O)NC7=O)cc6F)CC5)CC4)cc3)CC1)n2C` (stereo partly drawn) [Example 2c32, 3-((4-(4-((1-(4-(1-((S)-1-(4-(6-amino-2-methoxypyridin-3-yl)-1-methyl-1H-pyrrolo[2,3-b]pyridin-2-yl)ethyl)piperidin-4-yl)benzoyl)piperidin-4-yl)methyl)piperazin-1-yl)-3-fluorophenyl)amino)-piperidine-2,6-dione] had a negative-log EC50 (pEC50) of 7.17. Moreover, in experiment [2], the 50% degradation concentration (DC50) is 0.0165 µM.
For `C[C@@H](c1cc2c(-c3ccc(N)nc3)ccnc2n1C)N1CCC(c2ccc(C(=O)N3CCC(CN4CCN(c5ccc(N[C@H]6CCC(=O)NC6=O)cc5F)CC4)CC3)cc2)CC1` (single isomer, unassigned) [Example 2c19] the same measures were 6.96 and 0.0105 µM.
On the same counts, the results for `CNc1ccc(-c2ccnc3c2cc([C@H](C)N2CC=C(c4c(C)cc(C(=O)N5CCC(CN6CCN(c7ccc(NC8CCC(=O)NC8=O)c(OC)c7)CC6)CC5)cc4F)CC2)n3C)cn1` (stereo partly drawn) [Example 2c46, 3-((4-(4-((1-(3-fluoro-5-methyl-4-(1-((S)-1-(1-methyl-4-(6-(methylamino)pyridin-3-yl)-1H-pyrrolo[2,3-b]pyridin-2-yl)ethyl)-1,2,3,6-tetrahydropyridin-4-yl)benzoyl)piperidin-4-yl)methyl)piperazin-1-yl)-2-methoxyphenyl)amino)piperidine-2,6-dione] are 7.23 and 0.0214 µM.
On the same counts, the results for `CNc1ccc(-c2ccnc3c2cc([C@H](C)N2CC=C(c4c(C)cc(C(=O)N5CCC(CN6CCN(c7ncc(NC8CCC(=O)NC8=O)cc7F)C[C@@H]6C)CC5)cc4F)CC2)n3C)cn1` (stereo partly drawn) [Example 2c45, 3-((5-fluoro-6-((S)-4-((1-(3-fluoro-5-methyl-4-(1-((S)-1-(1-methyl-4-(6-(methyl-amino)pyridin-3-yl)-1H-pyrrolo[2,3-b]pyridin-2-yl)ethyl)-1,2,3,6-tetrahydropyridin-4-yl)benzoyl)-piperidin-4-yl)methyl)-3-methylpiperazin-1-yl)pyridin-3-yl)amino)piperidine-2,6-dione] are 6.98 and 0.0213 µM.
In experiment [1] (Homo sapiens), `C[C@@H](c1cc2c(-c3ccc4[nH]c(=O)n(C)c4c3)ccnc2n1C)N1CCC(c2ccc(C(=O)N3CCC(CN4CCN(c5ccc(NC6CCC(=O)NC6=O)cc5F)CC4)CC3)cc2)CC1` (stereo partly drawn) [Example 2c28, 3-((3-fluoro-4-(4-((1-(4-(1-((S)-1-(1-methyl-4-(3-methyl-2-oxo-2,3-dihydro-1H-benzo[d]imidazol-5-yl)-1H-pyrrolo[2,3-b]pyridin-2-yl)ethyl)piperidin-4-yl)benzoyl)piperidin-4-yl)methyl)piperazin-1-yl)phenyl)amino)piperidine-2,6-dione] showed a pEC50 of 7.02. Besides, the maximum response (Emax) in experiment [2] fell in the range of 70 to 80%.
For `C[C@@H](c1cc2c(-c3ccc(N)nn3)ccnc2n1C)N1CCC(c2ccc(C(=O)N3CCC(CN4CCN(c5ccc(NC6CCC(=O)NC6=O)cc5F)CC4)CC3)cc2)CC1` (stereo partly drawn) [Example 2c27, 3-((4-(4-((1-(4-(1-((S)-1-(4-(6-aminopyridazin-3-yl)-1-methyl-1H-pyrrolo[2,3-b]pyridin-2-yl)ethyl)piperidin-4-yl)benzoyl)piperidin-4-yl)methyl)piperazin-1-yl)-3-fluorophenyl)amino)piperidine-2,6-dione] the same measures were 6.77 and 70 to 80%.
On the same counts, the results for `C[C@@H](c1cc2c(-c3ccc(NCCO)nc3)ccnc2n1C)N1CCC(c2ccc(C(=O)N3CCC(CN4CCN(c5ccc(NC6CCC(=O)NC6=O)cc5F)CC4)CC3)cc2)CC1` (stereo partly drawn) [Example 2c26, 3-((3-fluoro-4-(4-((1-(4-(1-((S)-1-(4-(6-((2-hydroxyethyl)amino)pyridin-3-yl)-1-methyl-1H-pyrrolo[2,3-b]pyridin-2-yl)ethyl)piperidin-4-yl)benzoyl)piperidin-4-yl)methyl)piperazin-1-yl)phenyl)-amino)piperidine-2,6-dione] are 6.73 and 60 to 70%.
Turning to `C[C@@H](c1cc2c(-c3ccc(N)nc3)ccnc2n1C)N1CCC(c2ccc(C(=O)N3CCn4nc(CN5CCC(c6ccc(N[C@H]7CCC(=O)NC7=O)cc6F)CC5)cc4C3)cc2)CC1` (single isomer, unassigned) [Example 2q11], in experiment [1] (Homo sapiens), the pEC50 was 8.23. Also, the DC50 in experiment [2] worked out at 0.0008 µM.
